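Following 48 hours of exposure in 96-well plates, responses at five concentrations were used to interpolate endpoints linearly. TGI denotes the concentration required for complete inhibition of growth.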
Columns and labels:
Assay in all cases: NCI tumour cell line growth inhibition, 48 h
[1] = tested on: LOX IMVI melanoma
[2] = tested on: NCI-H226 lung
[3] = tested on: CCRF-CEM leukemia
[4] = tested on: A498 renal
[5] = tested on: SNB-75 CNS
[6] = tested on: PC-3 prostate
[7] = tested on: SN12C renal
[8] = tested on: SR leukemia
[9] = tested on: KM12 colon
[10] = tested on: SW-620 colon
[11] = tested on: EKVX NSCLC
[12] = tested on: RXF 393 renal
[13] = tested on: HOP-92 NSCLC
[14] = tested on: HCT-116 colon
[15] = tested on: NCI-H23 lung
[16] = tested on: CAKI-1 renal
[17] = tested on: BT-549 breast
[18] = tested on: OVCAR-8 ovarian
[19] = tested on: DU-145 prostate
[20] = tested on: OVCAR-4 ovarian
[21] = tested on: MDA-MB-231 breast
[22] = tested on: HL-60(TB) leukemia
[23] = tested on: M14 melanoma
[24] = tested on: T-47D breast
[25] = tested on: HT29 colon
[26] = tested on: TK-10 renal
[27] = tested on: ACHN renal
[28] = tested on: IGROV1 ovarian
[29] = tested on: NCI/ADR-RES ovarian
[30] = tested on: A549 NSCLC
[31] = tested on: RPMI-8226 leukemia
[32] = tested on: SNB-19 CNS
[33] = tested on: NCI-H522 lung
[34] = tested on: HOP-62 NSCLC
[35] = tested on: SK-MEL-28 melanoma
[36] = tested on: OVCAR-3 ovarian
[37] = tested on: NCI-H460 lung
[38] = tested on: MDA-N
[39] = tested on: COLO 205 colon
[40] = tested on: HCT-15 colon
[41] = tested on: HS 578T breast
[42] = tested on: UO-31 renal
[43] = tested on: SK-OV-3 ovarian
[44] = tested on: OVCAR-5 ovarian
[45] = tested on: UACC-257 melanoma
[46] = tested on: MCF7 breast
[47] = tested on: SF-268 CNS
[48] = tested on: U251 CNS
[49] = tested on: UACC-62 melanoma
[50] = tested on: SK-MEL-2 melanoma
[51] = tested on: MOLT-4 leukemia
[52] = tested on: MDA-MB-435
[53] = tested on: 786-0 renal
[54] = tested on: SF-295 CNS
[55] = tested on: SK-MEL-5 melanoma
[56] = tested on: HCC-2998 colon
[57] = tested on: K-562 leukemia
[58] = tested on: SF-539 CNS

Cc1cn(CCCCC2=NCCCN2)c(=O)[nH]c1=O
TGI [1]: > 32.6 µM
TGI [2]: > 81.3 µM
TGI [3]: > 23 µM
TGI [4]: > 49.4 µM
TGI [5]: > 28.6 µM
TGI [6]: > 35 µM
TGI [7]: > 100 µM
TGI [8]: > 41 µM
TGI [9]: > 48.9 µM
TGI [10]: > 37 µM
TGI [11]: > 42 µM
TGI [12]: > 32.6 µM
TGI [13]: 18.3 µM
TGI [14]: > 29.3 µM
TGI [15]: > 44.3 µM
TGI [16]: > 23.4 µM
TGI [17]: > 20.5 µM
TGI [18]: > 28.2 µM
TGI [19]: > 34.4 µM
TGI [20]: > 40.7 µM
TGI [21]: > 42 µM
TGI [22]: > 19.7 µM
TGI [23]: > 32.4 µM
TGI [24]: > 23.9 µM
TGI [25]: > 23.1 µM
TGI [26]: > 36.6 µM
TGI [27]: > 31 µM
TGI [28]: > 33.8 µM
TGI [29]: > 67.5 µM
TGI [30]: > 54.4 µM
TGI [31]: > 100 µM
TGI [32]: > 66.2 µM
TGI [33]: > 46.3 µM
TGI [34]: > 60.7 µM
TGI [35]: > 32.9 µM
TGI [36]: > 33.1 µM
TGI [37]: > 67.8 µM
TGI [38]: > 100 µM
TGI [39]: > 43.4 µM
TGI [40]: > 47.2 µM
TGI [41]: > 60.5 µM
TGI [42]: > 31 µM
TGI [43]: > 40.7 µM
TGI [44]: > 42.5 µM
TGI [45]: > 33.9 µM
TGI [46]: > 34.4 µM
TGI [47]: > 24.2 µM
TGI [48]: > 46.4 µM
TGI [49]: > 59.1 µM
TGI [50]: > 35.9 µM
TGI [51]: > 37.1 µM
TGI [52]: > 33.8 µM
TGI [53]: > 30.1 µM
TGI [54]: > 65.5 µM
TGI [55]: > 38.1 µM
TGI [56]: > 32.9 µM
TGI [57]: > 37.2 µM
TGI [58]: > 22 µM

From PubChem BioAssay (NCI)
